# Measured values from US20230135108A1, “C[…] COMPOUNDS AND METHODS OF MAKING SAME” (Canopy Growth Corporation, priority 2020, published 2023).
# Counter-ions that a name gives are not always drawn.
# Legend:
# [1] = Simulated gastric fluid (SGF) assay; format: in vitro ADME; details: pH 1.2-1.5, pepsin, 37° C.; for half-life at 10 µM: simulated gastric fluid with pepsin, read-out: half-life in a gastric environment (SGF)
# Method: In a microcentrifuge tube, 626.5 μL of a solution containing 1.1× assay buffer (37.6 mM NaCI, pH 1.2-1.5) was diluted with 70 μL of a 10× pepsin solution (80,000 U/mL in milliQ water). […] The sample was incubated under the same conditions. At the specified time points, 150 μL aliquots of the sample were transferred to microcentrifuge tubes containing 24 μL of quenching solution (0.5 M NaHCO3). After vortexing for 5 seconds, 348 μL of protein precipitation solution containing an internal standard (25 μM Glyburide, ACN) was added. The tube was vortexed again for 20 seconds and stored in ice. Finally, the tubes were centrifuged at 5,000×g and 4° C. for 15 min. The percentage remaining CBDA or CBDA-arginine salt, respectively, compared to time zero, was quantified in the supernatant by HPLC/LC-MS or LC-MS/MS.
# [2] = Solubility in water (HPLC of filtrate); format: physicochemical; details: 50 mg in 8 mL deionized water, 0.45 micron filter, FIG. 7
# Method: In a test tube, 50 mg of the respective cannabinoid salt compound was suspended in 8 mL of deionized water and vortexed. The solution was filtered with a syringe equipped with 0.45 micron filter. HPLC was used to determine the quantity of dissolved cannabinoids.
Structure (SMILES),half-life at 10 µM [1] [min],solubility in water [2],half-life in a gastric environment (SGF) [1]
"C=C(C)[C@@H]1CCC(C)=C[C@H]1c1c(O)cc(CCCCC)c(C(=O)O)c1O [CBDA, cannabidiolic acid]",~19.7,–,–
"CCCCCc1cc2c(c(O)c1C(=O)O)[C@@H]1C=C(C)CC[C@H]1C(C)(C)O2 [THCA, tetrahydrocannabinolic acid]",–,virtually insoluble,about 12.2 min
C1CCC(NC2CCCCC2)CC1.CCCCCc1cc2c(c(O)c1C(=O)O)C1C=C(C)CCC1C(C)(C)O2 (centres unmarked) [THCA-DCHA salt],–,virtually insoluble,–
CCCCCc1cc2c(c(O)c1C(=O)O)[C@@H]1C=C(C)CC[C@H]1C(C)(C)O2 [THCA-arginine salt],~14.4,–,–
